What was measured:
[1] = Antioxidant activity assessed as suppression of lipid peroxidation at 5 uM relative to control; assay type: functional
[2] = Antioxidant activity assessed as suppression of lipid peroxidation at 1 uM relative to control; assay type: functional
[3] = Inhibition of NADH oxidase (unknown origin) at 1 uM relative to control; conditions: Homo sapiens
[4] = Inhibition of NADH oxidase (unknown origin) at 5 uM relative to control; conditions: Homo sapiens

inhibition [3] | inhibition [4] | SMILES | Activity [1] | Activity [2]
 |  | CCCCCCCCCCCCCCCCc1c(C)n(O)c(C)c(Br)c1=O | 15% | 7%
 |  | CCCCCCCc1c(C)n(O)c(C)cc1=O | 0% | 0%
20.1% | 12% | C=Cc1c(C)n(O)c(C)c(CCCCCCCCCCCCCCCC)c1=O | 13% | 7%
74.5% | 44.5% | CCCCCCCc1c(C)n(O)c(C)c(C(C)=O)c1=O | 2.2% | 11%
 |  | CCCCCCCCCCc1c(C)n(O)c(C)c(Br)c1=O | 0% | 0%
 |  | CCCCCCCc1c(C)n(O)c(C)c(Br)c1=O | 0% | 0%
 |  | CCCCCCCc1c(C)n(O)c(C)c(Cl)c1=O | 0% | 0%
17.1% | 12.7% | CCCCCCCCCCCCCCCCc1c(C)n(O)c(C)c(N)c1=O | 94% | 18%
 |  | CCCCCCCCCCc1c(C)n(O)c(C)c(Cl)c1=O | 0% | 0%
 |  | CCCCCCCCCCc1c(C)n(O)c(C)cc1=O | 0% | 0%
29.7% | 20.7% | C=Cc1c(C)n(O)c(C)c(CCCCCCC)c1=O | 0% | 0%
92.9% | 76.7% | CCCCCCCc1c(C)n(O)c(C)c(N)c1=O | 9.6% | 14%
 |  | CCCCCCCCCCCCCCCCc1c(C)n(O)c(C)cc1=O | 20% | 10%

Source: ChEMBL document CHEMBL2321861, “Multifunctional radical quenchers for the treatment of mitochondrial dysfunction” (ACS Med Chem Lett, 2013)
